Results as given in ChEMBL document CHEMBL4825668, “Discovery of Novel Pyrimidine-Based Capsid Assembly Modulators as Potent Anti-HBV Agents” (J Med Chem, 2021).
Activity calls are given as the source filed them. The rule behind the calls is not given here.

Legend:
[1] = Metabolic stability in rat liver microsomes assessed as compound remaining at […] incubated for 30 mins by LC/MS/MS analysis; format: ADME, Microsome; conditions: read-out: Stabilty
[2] = biological target: Voltage-gated inwardly rectifying potassium channel KCNH2 (Homo sapiens, UniProt Q12809); experiment: Inhibition of human ERG expressed in HEK cells at -80 mV holding potential by patch clamp assay relative to control; format: cell-based
Voltage-gated inwardly rectifying potassium channel KCNH2, sequence (Q12809 whole entry): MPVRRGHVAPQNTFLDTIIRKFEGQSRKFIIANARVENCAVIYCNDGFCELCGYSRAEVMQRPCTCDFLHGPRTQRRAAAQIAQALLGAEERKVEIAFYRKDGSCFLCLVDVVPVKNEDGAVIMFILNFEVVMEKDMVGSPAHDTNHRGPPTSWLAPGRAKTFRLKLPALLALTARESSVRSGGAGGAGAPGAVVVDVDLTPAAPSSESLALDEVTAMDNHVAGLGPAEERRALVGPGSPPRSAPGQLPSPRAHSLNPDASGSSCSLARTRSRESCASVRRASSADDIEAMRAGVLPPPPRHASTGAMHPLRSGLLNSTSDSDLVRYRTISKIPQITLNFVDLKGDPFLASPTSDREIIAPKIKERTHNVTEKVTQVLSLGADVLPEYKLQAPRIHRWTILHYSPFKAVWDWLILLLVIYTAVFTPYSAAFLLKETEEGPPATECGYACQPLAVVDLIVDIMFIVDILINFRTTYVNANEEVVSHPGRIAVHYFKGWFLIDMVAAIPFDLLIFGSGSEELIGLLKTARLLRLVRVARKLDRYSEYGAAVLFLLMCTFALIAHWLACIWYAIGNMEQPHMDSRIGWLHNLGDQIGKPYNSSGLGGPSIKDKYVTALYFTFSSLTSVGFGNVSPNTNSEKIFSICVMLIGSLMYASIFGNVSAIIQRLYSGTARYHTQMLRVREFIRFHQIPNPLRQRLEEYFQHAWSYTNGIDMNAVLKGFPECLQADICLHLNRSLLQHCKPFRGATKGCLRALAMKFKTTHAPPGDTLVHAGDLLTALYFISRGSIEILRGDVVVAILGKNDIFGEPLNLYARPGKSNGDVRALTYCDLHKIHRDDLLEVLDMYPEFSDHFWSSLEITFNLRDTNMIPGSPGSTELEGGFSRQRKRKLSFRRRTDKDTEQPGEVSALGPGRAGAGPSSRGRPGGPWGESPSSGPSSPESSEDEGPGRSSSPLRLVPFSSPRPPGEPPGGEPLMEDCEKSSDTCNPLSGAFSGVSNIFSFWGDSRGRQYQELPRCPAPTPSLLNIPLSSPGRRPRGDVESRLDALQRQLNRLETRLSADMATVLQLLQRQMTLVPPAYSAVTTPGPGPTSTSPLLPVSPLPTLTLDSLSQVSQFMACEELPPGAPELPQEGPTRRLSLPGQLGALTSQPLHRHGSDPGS

[3] = biological target: CYP3A4 (Homo sapiens, UniProt P08684); experiment: Inhibition of human recombinant CYP3A4 using ketoconazole […] at 10 uM by fluorometric assay; format: ADME
CYP3A4, sequence (P08684 whole entry): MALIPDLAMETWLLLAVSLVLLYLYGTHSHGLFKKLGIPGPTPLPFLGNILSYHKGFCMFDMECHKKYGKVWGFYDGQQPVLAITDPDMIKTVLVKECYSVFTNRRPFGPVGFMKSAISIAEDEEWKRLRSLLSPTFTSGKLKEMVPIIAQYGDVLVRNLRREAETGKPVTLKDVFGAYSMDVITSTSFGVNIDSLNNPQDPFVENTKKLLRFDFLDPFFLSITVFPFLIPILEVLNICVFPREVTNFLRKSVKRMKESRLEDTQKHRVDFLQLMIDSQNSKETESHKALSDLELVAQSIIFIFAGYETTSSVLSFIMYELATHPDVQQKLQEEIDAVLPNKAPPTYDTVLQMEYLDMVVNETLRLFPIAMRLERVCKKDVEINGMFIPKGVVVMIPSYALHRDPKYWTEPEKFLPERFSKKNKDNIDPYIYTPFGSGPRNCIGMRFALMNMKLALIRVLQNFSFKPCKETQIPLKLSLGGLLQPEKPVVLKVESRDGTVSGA

[4] = biological target: CYP2C19 (Homo sapiens, UniProt P33261); experiment: Inhibition of human recombinant CYP2C19 using amitriptyline […] at 10 uM by fluorometric assay; format: ADME
CYP2C19, sequence (P33261 whole entry): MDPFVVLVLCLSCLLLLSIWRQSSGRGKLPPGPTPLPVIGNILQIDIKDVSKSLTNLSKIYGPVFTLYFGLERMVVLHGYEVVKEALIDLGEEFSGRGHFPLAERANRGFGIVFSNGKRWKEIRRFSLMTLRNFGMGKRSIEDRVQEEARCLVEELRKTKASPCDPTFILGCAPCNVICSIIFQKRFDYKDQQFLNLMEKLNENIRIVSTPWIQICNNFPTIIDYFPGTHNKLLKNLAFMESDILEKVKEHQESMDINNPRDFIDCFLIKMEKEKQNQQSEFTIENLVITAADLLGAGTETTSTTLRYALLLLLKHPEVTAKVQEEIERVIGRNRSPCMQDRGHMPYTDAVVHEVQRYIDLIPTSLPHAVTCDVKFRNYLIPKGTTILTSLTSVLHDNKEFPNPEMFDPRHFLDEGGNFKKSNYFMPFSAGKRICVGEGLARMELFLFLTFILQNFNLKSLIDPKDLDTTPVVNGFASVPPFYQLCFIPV

[5] = Permeability of the compound at pH 7.4 by PAMPA; format: ADME
[6] = biological target: hERG (KCNH2) (Homo sapiens, UniProt Q12809); experiment: Inhibition of human ERG at 40 uM incubated for 2 to 3 hrs by ligand binding assay
hERG (KCNH2), sequence (Q12809 whole entry): as the sequence (Q12809 whole entry) above

[7] = biological target: CYP2C9 (Homo sapiens, UniProt P11712); experiment: Inhibition of human recombinant CYP2C9 using sulfaphenazole […] at 10 uM by fluorometric assay; format: ADME
CYP2C9, sequence (P11712 whole entry): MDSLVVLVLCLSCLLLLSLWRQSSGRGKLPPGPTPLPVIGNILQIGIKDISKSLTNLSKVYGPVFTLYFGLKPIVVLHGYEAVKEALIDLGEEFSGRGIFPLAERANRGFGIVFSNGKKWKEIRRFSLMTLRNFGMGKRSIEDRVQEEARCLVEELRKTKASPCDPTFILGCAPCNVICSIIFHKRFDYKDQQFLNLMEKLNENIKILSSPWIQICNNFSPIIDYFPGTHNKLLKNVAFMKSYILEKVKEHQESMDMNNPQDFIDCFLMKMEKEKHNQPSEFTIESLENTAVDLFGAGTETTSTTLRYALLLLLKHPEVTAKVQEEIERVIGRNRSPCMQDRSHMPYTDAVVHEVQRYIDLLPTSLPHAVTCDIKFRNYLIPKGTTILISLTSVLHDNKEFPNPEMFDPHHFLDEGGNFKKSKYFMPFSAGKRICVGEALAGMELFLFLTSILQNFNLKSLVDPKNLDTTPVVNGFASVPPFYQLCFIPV

[8] = Metabolic stability in mouse liver microsomes assessed as compound remaining at […] incubated for 30 mins by LC/MS/MS analysis; format: ADME, Microsome; conditions: read-out: Stabilty
[9] = Mutagenicity in Salmonella typhimurium in presence of S9 fraction by Ames test; format: toxicity, subcellular; conditions: salmonella enterica subsp. enterica serovar typhimurium
[10] = Toxicity in BALB/c mouse assessed as changes in blood up to 400 mg/kg, po for 2 weeks; format: organism-based; conditions: in vivo, 336 h
[11] = biological target: T1, CYP1A2 (Homo sapiens, UniProt P05177); experiment: Inhibition of human recombinant CYP1A2 using alpha-naphthoflavone […] at 10 uM by fluorometric assay; format: ADME
T1 sequence (P05177 whole entry): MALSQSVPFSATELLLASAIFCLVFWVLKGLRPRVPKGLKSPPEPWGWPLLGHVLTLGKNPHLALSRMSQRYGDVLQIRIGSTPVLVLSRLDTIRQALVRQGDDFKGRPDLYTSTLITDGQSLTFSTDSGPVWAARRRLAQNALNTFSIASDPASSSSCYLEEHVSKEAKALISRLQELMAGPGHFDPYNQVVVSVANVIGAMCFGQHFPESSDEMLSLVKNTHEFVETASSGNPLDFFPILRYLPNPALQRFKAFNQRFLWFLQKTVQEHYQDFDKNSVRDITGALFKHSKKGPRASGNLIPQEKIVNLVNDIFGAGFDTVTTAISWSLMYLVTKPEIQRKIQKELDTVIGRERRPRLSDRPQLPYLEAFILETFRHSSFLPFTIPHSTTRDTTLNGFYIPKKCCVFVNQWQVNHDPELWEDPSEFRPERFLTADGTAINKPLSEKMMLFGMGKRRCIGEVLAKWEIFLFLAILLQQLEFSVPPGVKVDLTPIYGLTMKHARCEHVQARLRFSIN

[12] = Metabolic stability in human liver microsomes assessed as compound remaining at […] incubated for 30 mins by LC/MS/MS analysis; format: ADME, Microsome; conditions: read-out: Stabilty
[13] = biological target: CYP2D6 (Homo sapiens, UniProt P10635); experiment: Inhibition of human recombinant CYP2D6 using quinidine […] at 10 uM by fluorometric assay; format: ADME
CYP2D6, sequence (P10635 whole entry): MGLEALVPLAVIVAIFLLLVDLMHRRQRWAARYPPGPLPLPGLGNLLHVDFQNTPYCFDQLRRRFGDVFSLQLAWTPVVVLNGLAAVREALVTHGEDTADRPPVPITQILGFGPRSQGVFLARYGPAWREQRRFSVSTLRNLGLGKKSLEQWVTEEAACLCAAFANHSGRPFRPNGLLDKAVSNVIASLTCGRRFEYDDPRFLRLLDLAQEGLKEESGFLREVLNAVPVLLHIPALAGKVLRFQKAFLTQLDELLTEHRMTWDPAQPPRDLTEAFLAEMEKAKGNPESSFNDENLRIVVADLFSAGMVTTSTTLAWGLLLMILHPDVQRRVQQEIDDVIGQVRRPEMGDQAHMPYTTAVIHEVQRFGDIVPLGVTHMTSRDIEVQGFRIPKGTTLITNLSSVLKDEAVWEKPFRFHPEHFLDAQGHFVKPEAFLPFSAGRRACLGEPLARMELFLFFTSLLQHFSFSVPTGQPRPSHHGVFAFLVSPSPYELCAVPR

[14] = Toxicity in BALB/c mouse assessed as changes in urine up to 400 mg/kg, po for 2 weeks; format: organism-based; conditions: in vivo, 336 h
[15] = system: Hepatitis B virus; experiment: Antiviral activity against Human hepatitis B virus in Huh-7 cells assessed as reduction in intracellular viral DNA level incubated for 36 hrs by qPCR analysis; format: functional, organism-based; conditions: Huh-7, 36 h
[16] = Cmax in ICR mouse at 10 mg/kg, po measured after 1440 mins by HPLC analysis; format: ADME, organism-based; parameters: route oral, dose 10 mg/kg, time 1440 min; conditions: in vivo
[17] = Volume of distribution at steady state in ICR mouse at 10 mg/kg, iv measured after 1440 mins by HPLC analysis; format: ADME, organism-based; conditions: in vivo, read-out: Vdss
[18] = AUC(infinity) in ICR mouse at 10 mg/kg, po measured after 1440 mins by HPLC analysis; format: ADME, organism-based; parameters: route oral, dose 10 mg/kg, time 1440 min; conditions: in vivo
[19] = Oral bioavailability in ICR mouse at 10 mg/kg measured after 1440 mins by HPLC analysis; format: ADME, organism-based; conditions: in vivo
[20] = Tmax in ICR mouse at 10 mg/kg, po measured after 1440 mins by HPLC analysis; format: ADME, organism-based; conditions: in vivo
[21] = AUClast in ICR mouse at 10 mg/kg, iv measured after 1440 mins by HPLC analysis; format: ADME, organism-based; parameters: route intravenous, dose 10 mg/kg, time 1440 min; conditions: in vivo
[22] = Clearance in ICR mouse at 10 mg/kg, iv measured after 1440 mins by HPLC analysis; format: ADME, organism-based; conditions: in vivo
[23] = Half life in ICR mouse at 10 mg/kg, po measured after 1440 mins by HPLC analysis; format: ADME, organism-based; conditions: in vivo
[24] = AUClast in ICR mouse at 10 mg/kg, po measured after 1440 mins by HPLC analysis; format: ADME, organism-based; parameters: route oral, time 1440 min, dose 10 mg/kg; conditions: in vivo
[25] = AUC(infinity) in ICR mouse at 10 mg/kg, iv measured after 1440 mins by HPLC analysis; format: ADME, organism-based; parameters: route intravenous, time 1440 min, dose 10 mg/kg; conditions: in vivo
[26] = Half life in ICR mouse at 10 mg/kg, iv measured after 1440 mins by HPLC analysis; format: ADME, organism-based; conditions: in vivo
[27] = Half life in ICR mouse at 5 mg/kg, iv measured after 1440 mins by HPLC analysis; format: ADME, organism-based; conditions: in vivo
[28] = Cmax in ICR mouse at 5 mg/kg, iv measured after 1440 mins by HPLC analysis; format: ADME, organism-based; parameters: route intravenous, dose 5 mg/kg, time 1440 min; conditions: in vivo
[29] = Volume of distribution at steady state in ICR mouse at 5 mg/kg, iv measured after 1440 mins by HPLC analysis; format: ADME, organism-based; conditions: in vivo, read-out: Vdss
[30] = Clearance in ICR mouse at 5 mg/kg, iv measured after 1440 mins by HPLC analysis; format: ADME, organism-based; conditions: in vivo
[31] = AUClast in ICR mouse at 5 mg/kg, iv measured after 1440 mins by HPLC analysis; format: ADME, organism-based; parameters: route intravenous, dose 5 mg/kg, time 1440 min; conditions: in vivo
[32] = AUC(infinity) in ICR mouse at 5 mg/kg, iv measured after 1440 mins by HPLC analysis; format: ADME, organism-based; parameters: route intravenous, time 1440 min, dose 5 mg/kg; conditions: in vivo
[33] = system: Hepatitis B virus; experiment: Antiviral activity against Human hepatitis B virus infected in humanized liver uPA SCID mouse model assessed as change in serum HBsAg at 40 mg/kg, po daily measured every week by ELISA; format: functional, organism-based
[34] = system: Huh-7; experiment: Inhibition of HBV recombinant Cp149 expressed in Huh-7 cells assessed as inhibition of secretion of particles containing viral DNA at 1 uM incubated for 1 hr by immunoblot analysis; format: cell-based; conditions: Hepatitis B virus
[35] = system: Hepatitis B virus; experiment: Antiviral activity against Human hepatitis B virus infected in humanized liver uPA SCID mouse model assessed as reduction in HBV core protein at 40 mg/kg, po daily measured after 35 days by immunohistochemical analysis; format: functional, organism-based; conditions: time 35.0 day
[36] = system: Hepatitis B virus; experiment: Inhibition of HBV recombinant Cp149 expressed in Escherichia coli BL21 (DE3) assessed as inhibition of capsid assembly at 0.1 uM incubated for 1 hr by immune blotting analysis relative to control
[37] = system: Hepatitis B virus; experiment: Antiviral activity against Human hepatitis B virus infected in hydrodynamic injection C57BL/6 mouse model assessed as reduction in viral DNA in serum up to 120 mg/kg, po daily measured after 5 days by qPCR analysis; format: functional, organism-based; conditions: dose mg/kg <=120, time 5.0 day
[38] = system: Huh-7; experiment: Inhibition of HBV recombinant Cp149 expressed in Huh-7 cells assessed as assembled HBV core protein fraction at 1 uM incubated for 1 hr by sucrose gradient analysis; format: cell-based; conditions: Hepatitis B virus
[39] = system: Hepatitis B virus; experiment: Antiviral activity against Human hepatitis B virus infected in hydrodynamic injection C57BL/6 mouse model assessed as reduction in serum HBsAg up to 120 mg/kg, po daily by ELISA; format: functional, organism-based; conditions: dose mg/kg <=120
[40] = system: Hepatitis B virus; experiment: Antiviral activity against Human hepatitis B virus infected in humanized liver uPA SCID mouse model assessed as decrease in serum viral DNA at 40 mg/kg, po daily measured every week by qPCR analysis; format: functional, organism-based
[41] = system: Hepatitis B virus; experiment: Antiviral activity against Human hepatitis B virus infected in humanized liver uPA SCID mouse model assessed as change in serum HBeAg at 40 mg/kg, po daily measured every week by ELISA; format: functional, organism-based
[42] = system: Hepatitis B virus; experiment: Antiviral activity against Human hepatitis B virus in Huh-7 cells assessed as decrease in intracellular viral DNA accumulation incubated for 36 hrs by qPCR analysis; format: functional, organism-based
[43] = system: Hepatitis B virus; experiment: Antiviral activity against Human hepatitis B virus in Huh-7 cells assessed as reduction in HBsAg level by ELISA; format: functional, organism-based
[44] = system: Hepatitis B virus; experiment: Antiviral activity against Human hepatitis B virus in Huh-7 cells assessed as decrease in viral DNA level incubated for 36 hrs by qPCR analysis; format: functional, organism-based
[45] = system: Hepatitis B virus; experiment: Inhibition of HBV recombinant Cp149 expressed in Escherichia coli BL21 (DE3) assessed as inhibition of capsid assembly at 1 uM incubated for 1 hr by immune blotting analysis relative to control

Question: What does the source list for `CS(=O)(=O)c1nc(Nc2ccc(F)c(Cl)c2)cc(NC2CCC(N)CC2)n1` (stereo unspecified) [listing 1 of 2 here]?
Answer: remaining at 0.5 h [1]: 82%; IC50 [2]: 19.8 µM; inhibition at 10 µM [3]: 44%; inhibition at 10 µM [4]: 71.4%; log(permeability) [5]: -5.15; inhibition at 40 µM [6]: 76.6%; inhibition at 10 µM [7]: 51.8%; remaining at 0.5 h [8]: 79.6%; Activity [9]: Non-Toxic; Activity [10]: Non-Toxic; inhibition at 10 µM [11]: 37.2%; remaining at 0.5 h [12]: 81.7%; inhibition at 10 µM [13]: 21.7%; Activity [14]: Non-Toxic; IC50 [15]: 0.181 µM

Question: What does the source list for `CS(=O)(=O)c1nc(Nc2ccc(F)c(Cl)c2)cc(N2CCNCC2)n1.Cl`?
Answer: Cmax [16]: 25 ng/mL; Vd [17]: 10.9 L/kg; AUC(0-inf) [18]: 107 ng·h/mL; bioavailability [19]: 4.6%; Tmax [20]: 0.5 h; AUC(0-t) at 24 h [21]: 2370 ng·h/mL; clearance [22]: 70.8 mL/min/kg; half-life [23]: 7.8 h; AUC(0-t) at 24 h [24]: 131 ng·h/mL; AUC(0-inf) [25]: 2330 ng·h/mL; half-life [26]: 3.3 h

Question: What does the source list for `CS(=O)(=O)c1nc(Nc2ccc(F)c(Cl)c2)cc(NC2CCC(N)CC2)n1.Cl` (stereo unspecified)?
Answer: Cmax [16]: 28.3 ng/mL; half-life [27]: 4.8 h; AUC(0-inf) [18]: 270 ng·h/mL; Cmax [28]: 9780 ng/mL; bioavailability [19]: 4.8%; Vd [29]: 5.4 L/kg; Tmax [20]: 1.8 h; clearance [30]: 36.7 mL/min/kg; AUC(0-t) at 24 h [31]: 2110 ng·h/mL; half-life [23]: 6.3 h; AUC(0-inf) [32]: 2410 ng·h/mL; AUC(0-t) at 24 h [24]: 203 ng·h/mL

Question: For `CS(=O)(=O)c1nc(Nc2ccc(F)c(Cl)c2)cc(NC2CCC(N)CC2)n1` (stereo unspecified) [listing 2 of 2 here], which Activity [33] is on record?
Answer: Active

Question: And the inhibition [34]?
Answer: Active

Question: What about the Activity [35] of the same molecule?
Answer: Active

Question: What about the inhibition [36] of the same molecule?
Answer: 52%

Question: And the Activity [37]?
Answer: Dose-Dependent Effect

Question: And the inhibition [38]?
Answer: Active

Question: What about the Activity [39] of the same molecule?
Answer: Active

Question: And the Activity [40]?
Answer: Active

Question: And the Activity [41]?
Answer: Active

Question: What about the Activity [42] of the same molecule?
Answer: Active

Question: And the Activity [43]?
Answer: inactive

Question: And the Activity [44]?
Answer: Active

Question: And the inhibition [45]?
Answer: 99%
